Tests used:
[1] = tested on: synovial MSCs; assay: Proliferation assay of synovial MSCs with recombinant protein (MTT assay); assay type: cell-based, human; settings: rh Activin A at ED50x10 and ED50x100 in 10% FBS and 0.5% FBS medium, days 0-7; FIGS. 5C and D
Protocol: Primary human synovial cells were isolated from the synovial tissues obtained from patients who underwent total knee arthroplasty (TKA), as described in Sekiya I. et al, Clin Orthop Relat Res, 2015, 473(7), pp. 2316 to 2326. That is, first, 0.5 to 1 mg of synovium obtained by incising the suprapatellar bursa was subjected to collagenase D treatment (Sigma, MO, USA, 3 hours at 37° C.) to disperse nucleated cells. Debris was removed by passing the cell dispersion through a 70 μm nylon mesh. Nucleated cells were seeded in a 15 cm dish at 5.7×10^2 cells/cm^2 and maintained and cultured in MEM-alpha medium supplemented with 10% FBS and antibiotics (Gibco, MA, USA) for 14 days. The cells were then separated from the dish in TripLE solution (Gibco) and seeded twice more in a new dish to obtain a sufficient cell count to be used in the experiments. Note that in all experiments, cells within 6 passages were used.
To evaluate the pro-proliferative activity of recombinant proteins (IL6, IL8, IL10, and Activin A), MTT assays were performed (see FIGS. 3C and 5C-E). Synovial MSCs were seeded to 1×10^3 cells/well in 96-well plates and cultured in 0.2 mL of normal growth medium 1 day before being subjected to recombinant protein treatment. On the following day, the medium was replaced with a fresh one (normal growth medium or medium with a reduced FBS concentration of 0.5% and recombinant protein added (10 times the concentration of ED50 or 100 times the concentration of ED50)). MTT assays were performed at days 0, 1, 3, 5, and 7 according to the method described in Denizot F. et al., J Immunol Methods, 1986, 89(2), pp. 271 to 277.
In addition, the present inventors tried to clarify the molecular mechanism of MSC proliferative activity by Activin A. It has been reported that the ERK and PI3K signal transduction pathways are activated for MSC proliferation (see Uomizu, M. et al, J Med Dent Sci., 2018, vol. 65, pp. 73 to 82). With the above in mind, Activin A (rh Activin A) was applied to synovial MSCs in the presence of PI3K-PKB/Akt and Erk1/Erk2, a specific inhibitor for each of these signal transduction pathways, and the cell count was measured by MTT assay.

[2] = tested on: C57BL/6J mice; assay: Medial meniscus anterior 1/2 resection model; assay type: in vivo, mouse
From the text: Twenty male C57BL/6J mice (8 weeks old, weight: about 25 g) were used for this study (5 mice in each group. ORIENTAL YEAST Co., Ltd. Tokyo, Japan). After anesthesia by isoflurane inhalation, a straight incision was made in the left anterior knee, and the anterior central side of the joint capsule was cut. The patellar tendon was then dislocated laterally to expose the anterior corner of the medial meniscus (see Hiyama K. et al, J Orthop Res., 2017, 35(9), pp. 1958 to 1965). The anterior corner of the meniscus was cut and dislocated anteriorly using forceps. The medial meniscus was cut perpendicularly at the medial collateral ligament, and the anterior portion of the medial meniscus was resected in a microscopic operation using a surgical microscope. The skin was closed in layers with non-absorbable sutures. Note that the right knee was subjected to sham surgery. In addition, the mice were kept under a 12-hour light/dark cycle with free movement, free feeding, and drinking water.
Recombinant human Activin A (42 ng/6 μL in PBS) and/or rh PDGF-AA (174 ng/6 μL in PBS) was injected intra-articularly on postoperative day 7 (see Hoshino T. et al., BMC Musculoskelet Disord., 2018, 19(1): 291). […]
Tissue samples were fixed in 4% paraformaldehyde for 3 to 4 days and subjected to decalcification in 20% ethylenediaminetetraacetic acid (EDTA) solution for 21 days. Then, they were embedded in paraffin wax. The specimens were then cut to a 5 μm thickness in the sagittal plane and stained with safranin O/Fast Green or hematoxylin/eosin (H&E) to histologically evaluate meniscus regeneration.
A modified Pauli's score system was used to histologically quantify meniscus regeneration (see Hiyama K. et al, J Orthop Res. 2017, 35(9), pp. 1958 to 1965). Histological evaluation was performed by two investigators in a blind manner.
Type I and II collagen immunostaining was performed as described in Tsuji K. et al, Cell Transplant., 2017, 26(6), pp. 1089 to 1102. That is, sections were subjected to deparaffinization with xylene (Wako Pure Chemical Industries, Tokyo, Japan), rehydrated stepwise with alcohol, and saturated with phosphate buffered saline (PBS). For type II collagen staining, the samples were pretreated with 50 mM Tris-HCl buffer (Wako Pure Chemical Industries) containing 0.4 mg/ml Proteinase K (Dako, Agilent Technologies, Santa Clara, Calif., USA) for 10 min. For type I collagen staining, no digestion with Proteinase K was performed.
Next, the cells were treated with methanol containing 0.3% hydrogen peroxide for 30 minutes to suppress the activity of endogenous peroxidase. As primary antibodies, anti-type I collagen antibody (1:200 dilution; Abcam cat. #ab34712, Cambridge, UK) or anti-type II collagen antibody (1:1000 dilution; Abcam […], Cambridge, UK) were added to the sections and incubated at 4° C. overnight. Then, the sections were rinsed with 0.1% PBS-Triton X-100 (MP Biomedicals Inc., Solon, Ohio, USA) and incubated with secondary antibodies diluted 1:200 [Biotinylated goat-derived anti-rabbit immunoglobulin G (IgG), Vector Laboratories, Burlingame, Calif., USA]. Then, the sections were rinsed, the signals were visualized with Vectastain ABC Reagent (Vector Laboratories), and diaminobenzidine staining (DAB, Vector Laboratories) was applied. In addition, the sections were contrast stained with hematoxylin (Muto Pure Chemicals, Tokyo, Japan).

[3] = tested on: Akt; assay: Western blotting, phosphorylation of Akt in synovial MSCs; assay type: cell-based, human; settings: FIG. 5F
Protocol: Synovial MSCs were seeded in 6 cm dishes to reach a cell count of 2×10^5, and cultured in normal growth medium for 1 day. The medium was replaced with fresh medium with reduced amount of FBS (MEM-alpha, 0.5% FBS and antibiotics) and cultured for one more day. The cells were treated with rh Activin A and/or PDGF-AA (amount 3 times the ED50) for up to 30 minutes. Then, those cells were lysed with cell lysis buffer (#9803S; Cell Signaling Technology, MA) to prepare total cell lysate.
Western blotting was performed as described in Uomizu, M. et al, J Med Dent Sci. vol. 65, pp. 73 to 82. The antibodies used were purchased from Cell Signaling Technology (phospho-p44/42 (#4370), p44/42 (#9102), phospho-Akt (#9271), and Akt (#9272)).

“Activin A: homodimer of two inhibin βA chains; recombinant human protein purchased from R&D Systems” was tested, and the “proliferation of MSCs (MTT assay)” value [1] was “significantly activated”, the “regenerated meniscus tissue (histology)” value ([2]; 42 ng/knee intra-articular on day 7, 10 days after resection, FIG. 7A) was “more uniform regenerated meniscus tissue, was induced” and the “staining property of safranin O (proteoglycans)” value ([2]; 10 days after resection, vs control and PDGF groups, FIG. 7A) was “enhanced”. For the same substance, the “regenerated meniscus tissue (histology)” value ([2]; 21 days after resection (day 14 after administration), FIG. 7B) was “uniform regeneration of cartilage-like tissue was observed”, the “expression of type II collagen” value ([2]; 21 days after resection, FIG. 7B) was “Uniform expression” and the “regenerated meniscus tissue (histology)” value ([2]; 56 days after resection (day 49 after administration), FIG. 7C) was “formation of bone marrow-like tissue”. For the same substance, the “regenerated meniscus tissue (histology)” value ([2]; 84 days after resection (day 77 after administration), FIG. 7D) was “regenerated tissue image very close to that of a normal meniscus”, the “meniscus regeneration process, modified Pauli's score” value ([2]; day 10, 21, 56 and 84 after meniscectomy, FIG. 7E) was “significantly accelerated” and the “vascular invasion in the regenerated region” value ([2]; intra-articular on day 7, 10 days after resection, FIG. 7A) was “almost completely suppressed”. For the same substance, the “osteoinduction in regenerated tissues” value ([2]; regenerated tissues administered with activin) was “no osteoinduction was observed”, the “phosphorylation of Akt” value ([3]; Activin A alone, MSCs serum-starved 24 hours, within 30 minutes) was “not detected” and the “phosphorylation of Akt by PDGF” value ([3]; Activin A together with PDGF-AA) was “enhanced”.

— patent publication US20220160779A1, “COMPOSITION FOR PROMOTING CARTILAGE TISSUE REGENERATION” (National University Corporation Tokyo Medical and Dental …, priority 2019, published 2022)
